Read-outs that look alike come from different tables or passages of the source. Where no end group is shown, it is not given here.
Legend:
[1] = system: LN-229-GFP intracranial tumors; assay: In vivo labeling of LN-229-GFP intracranial tumors with Cy5 probes, 3-D cryo-imaging; set-up: species or system mouse; details: for Cy5 fluorescence of main tumors and dispersed cell populations: LN-229 tumors, i.v. probe, 90 min clearance
Excerpt: Individual slice images were manually edited if necessary.
Total fluorescence signal was then normalized for tumor volume.

[2] = Mouse health after multiple doses of Cy5 probes; assay type: in vivo; details: delivery of multiple doses
Procedure: Imaging experiments were performed at 10-11 days for CNS-1 and 4-8 weeks for LN-229, to allow for optimal tumor growth and cell dispersal in these two cell lines. […] Following a 90-min interval for clearance of unbound probe, the animals were sacrificed and the brains removed for whole-brain imaging using the MAESTRO FLEX In-Vivo Imaging System (Cambridge Research & Instrumentation, Inc. (CRi), Woburn, Mass.) Immediately after imaging, the brains were embedded in Tissue-Tek OCT compound (Sakura Finetek U.S.A., Inc. Torrance, Calif.), frozen in a dry ice/ethanol slurry and cryo-imaged.

[3] = system: CNS-1-GFP intracranial tumors; details: for Cy5 fluorescence intensity of main tumors and dispersed cell populations: CNS-1 tumors, i.v. probe, 90 min clearance, normalized to background and tumor volume; for labeling of tumor (Cy5 signal) in words: intracranial glioma tumors, i.v. administration (FIG. 4)
LN-229-GFP flank tumors = assay: Histologic probe labeling of LN-229-GFP flank tumor tissue sections; assay type: binding, human; details: probe 1 μM, 1 hour, room temperature
Procedure: Tumors were embedded in Tissue Freezing Medium (Electron Microscopy Sciences, Hatfield, Pa.) in a dry ice ethanol slurry and cryosectioned at 7-μm intervals.
For probe labeling, tissue sections were blocked with 2% goat serum in phosphate-buffered saline for 20 minutes at room temperature, then incubated with SBK2-Texas Red or scrambled Texas Red probes diluted to 1 μMin block buffer for 1 hour at room temperature in dark conditions. The sections were rinsed with phosphate-buffered saline, coverslipped with Citifluor Antifadent Mounting Medium (Electron Microscopy Sciences), and imaged immediately at ×20 magnification on a Leica DMI 6000 B inverted microscope (Leica Microsystems GmbH, Wetzlar, Germany) using a Retiga EXi camera (QImaging, Surrey, BC) and Metamorph software (MolecularDevices, Downington, Pa.). Images were acquired across the entire tissue using bright-field and fluorescence optics for fluorescein (GFP) and Texas Red (probe). The resultant images were tiled and flattened to form a single composite image using Metamorph software. A human specific Vimentin antibody (clone SP20; Thermo Fisher Scientific, Fremont, Calif.) was used to detect the implanted LN-229 tumor cells and imaged as above.

LN-229 flank tumors = details: 0.1 mmol/kg i.v.
Excerpt: Cells were infected with lentivirus encoding green fluorescent protein (GFP), diluted in BD Matrigel Matrix (BD Biosciences, Franklin Lakes, N.J.), and injected into both flanks of female nude athymic mice (NCr-nu/+, NCr-nu/nu, 20-25 g each). Approximately 1.4×10^6 cells were implanted per flank. To correlate tumor position with GFP fluorescence, mice were imaged using the Maestro FLEX In Vivo Imaging System as previously described. Tumor area was approximately 0.5 cm^2, as measured from GFP fluorescence images acquired with the Maestro just before MRI.
The MRI study was performed using a Bruker Biospec 7-T MRI scanner (Bruker Corp, Billerica, Mass.) with a 72-mm diameter cylindrical radio frequency coil. Mice bearing LN-229 flank tumors were imaged at 2 to 5 weeks after tumor implant. […]
Image analysis was performed by using Bruker ParaVision 4.0 imaging software. Regions of interest were drawn over the whole tumor in the 2D imaging plane and average signal intensity was measured. Contrast-to-noise ratios (CNRs) in the tumor were calculated at each time point and averaged from different mice (n=3) using the following equation: CNR=(St−Sm)/(δn), where St and Sm denote the signal in tumor and adjacent thigh muscle and δn is the SD of noise estimated from the background air. The P values were calculated using a two-tailed Student's t test, assuming statistical significance at P<0.05. […]

prostate tumors = assay: Labeling of prostate tumors with PTPμ probe (FIG. 3)

Compound	Cy5 fluorescence of main tumors and dispersed cell populations [1]	effects on mouse health [2]	Cy5 fluorescence intensity of main tumors and dispersed cell populations [3]	labeling of tumor (Cy5 signal) in words [3]	labeling of flank tumor sections (LN-229-GFP flank tumors)	pattern of tumor enhancement on T1-weighted images / heat maps (LN-229 flank tumors)	also measured
SBK2-Cy5: SBK2 peptide (SEQ ID NO: 5) with additional N-terminal glycine conjugated to Cy5 NHS ester dye (Cy5-GEGDDFNWEQVNTLTKPTSD)	114.7+/−25.9	did not result in deleterious effects	73.5+/−16.2	brightly labeled			dispersed cell population labeled ([1]; LN-229-GFP intracranial tumors): greater than 99%; labeling of main GFP-positive tumor in words ([1]; LN-229-GFP intracranial tumors): bright Cy5 fluorescence signal; blood-brain barrier crossing ([3]; mouse, in vivo, iv): crosses the blood-brain barrier
scrambled Texas Red: scrambled peptide probe labeled with Texas Red (GFTQPETGTDNDLWSVDNEK; not fully specified (N-terminus); also: labeled with Texas Red, site not given here) [reference compound]					did not label the tumor		
CC(O)CN1CCN(CC(=O)[O-])CCN(CC(=O)[O-])CCN(CC(=O)[O-])CC1.[Gd+3] (centres unmarked) [ProHance, Gadoteridol, reference compound]						enhanced contrast of the tumor edge compared with the tumor center	
scrambled-Cy5: scrambled sequence of the SBK2 peptide (SEQ ID NO: 10) conjugated to Cy5 dye; control probe (GFTQPETGTDNDLWSVDNEK; also: Cy5 dye conjugate, attachment site not given here) [reference compound]	5.8	did not result in deleterious effects	7.2+/−2.3	did not label tumors			labeling of tumor (Cy5 signal) in words ([3]; listed as scrambled probe): no significant signal above background
scrambled Tris-(Gd-DOTA)3: scrambled SBK2 peptide (SEQ ID NO: 10) linked to Gd-DOTA; nontargeted control agent (CGFTQPETGTDNDLWSVDNEK; numbers in words are those of the source; also: Tris-(Gd-DOTA)3 conjugate, attachment site not given here) [reference compound]						enhanced contrast of the tumor edge compared with the tumor center	
SBK2-Texas Red: SBK2 peptide probe labeled with Texas Red (EGDDFNWEQVNTLTKPTSD; not fully specified (N-terminus); also: labeled with Texas Red, site not given here)					labeled the entire tumor with greatest intensity in the tumor center		recognition of prostate tumors (prostate tumors): recognized
